These results are taken from patent US11459375B2, “Cyclic peptides for the treatment of Graves' disease” (advanceCOR GmbH, priority 2017, dated 2022).

This experiment has as its system Ad-TSHR-immunized mice. Nature of the experiment: retro-orbital fibrosis by digitized image analysis of orbital sections. The class given is in vivo, BALB/c mice. The settings on record: 1 mg/kg IV 4-weekly, Masson's stain. The procedure:
FIG. 6 summarizes the results of histological investigation of orbital sections. […] The sections were taken at defined distances from the mouse bregma. Interstitial connective tissue was then stained in green (Masson's trichrome stain). For clarity, both HE stained sections (left panels) and Masson's stained sections (right panels) are shown next to each other. FIG. 6B: the effects of peptide therapy on severity of retro-orbital fibrosis were evaluated in histological sections of all available animals. The measurements were carried out in Ad-TSHR-immunized mice treated by either 4-weekly injections with vehicle (0.9% NaCl, “Graves' no therapy”, n=9 mice), or administrations of 1 mg/kg body weight of peptide 836 (11 mice) or TSHR-Fc (11 mice). […] The mean total fibrosis volumes of each right and left orbita, as assessed by digitized image analysis of all sections, and consecutive integrations, are shown with SEM. […]
After euthanasia, dissection of the thyroid glands was performed under a stereomicroscope, as described before (22). […] Thyroid volumes (mm^3) were calculated from the sum of the areas of each section over the whole cutting region. Myocardial volumes (mm^3) were calculated in a similar way as described for thyroid glands from the sum of the areas of each section over whole cutting region (5 to 6 slides, depending on respective size of the hearts). […]

Peptide text beside a SMILES is read from it.

As to `CC[C@H](C)[C@@H]1NC(=O)[C@H](C(C)C)NC(=O)[C@H]([C@@H](C)O)NC(=O)[C@H](CC(C)C)NC(=O)[C@H](Cc2ccc(O)cc2)NC(=O)[C@H](CCCCN)NC(=O)[C@H](CC(N)=O)NC(=O)[C@H](CCCCN)NC(=O)[C@H](CC(N)=O)NC(=O)[C@H](CC(C)C)NC(=O)[C@H](Cc2ccc(O)cc2)NC(=O)[C@H](C(C)C)NC(=O)[C@H](C)NC(=O)[C@H](CC(=O)O)NC(=O)[C@H](CC(C)C)NC(=O)[C@H](CCCCN)NC(=O)[C@H]([C@@H](C)O)NC(=O)CNC(=O)[C@H](CC(N)=O)NC(=O)[C@H](Cc2ccccc2)NC(=O)[C@H](C)NC(=O)[C@H](Cc2ccc(O)cc2)NC(=O)CNC(=O)[C@H](CC(=O)O)NC1=O` [peptide 836] (cyclo(GYAFNGTKLDAVYLNKNKYLTVID)), the retro-orbital fibrosis entry is reported as “completely reversed”.
